{"source": "patent US7022716B2", "about": "“Cyclic amine phenyl beta-3 adrenergic receptor agonists” (Wyeth, priority 2000, dated 2006)"}
{"biological_target": "T1, human β3 adrenergic receptor (Homo sapiens, UniProt P13945)", "T1 construct": "Full length β3 AR clones (402 amino acids) containing the last 6 amino acids of hβ3-AR are prepared; expressed in transfected cells; host or cells: CHO (Chinese hamster ovary) cells", "T1 sequence (P13945 whole entry)": "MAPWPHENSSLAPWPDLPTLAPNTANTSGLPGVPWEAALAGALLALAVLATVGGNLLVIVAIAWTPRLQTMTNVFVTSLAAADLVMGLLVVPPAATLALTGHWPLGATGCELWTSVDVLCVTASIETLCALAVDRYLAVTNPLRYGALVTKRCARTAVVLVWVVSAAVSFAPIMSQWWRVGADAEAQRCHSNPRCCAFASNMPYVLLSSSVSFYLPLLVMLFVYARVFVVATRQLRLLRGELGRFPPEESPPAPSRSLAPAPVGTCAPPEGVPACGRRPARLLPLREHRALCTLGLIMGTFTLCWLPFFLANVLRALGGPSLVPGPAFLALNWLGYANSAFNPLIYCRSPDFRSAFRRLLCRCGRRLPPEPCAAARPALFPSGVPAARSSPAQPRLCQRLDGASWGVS", "assay": "cAMP (SPA) response in CHO cells transfected with human β3 adrenergic receptor", "assay_type": "cell-based", "parameters": "key: fraction of maximal isoproterenol (10^-5 M) response", "conditions": "maximal response relative to maximal response of isoproterenol at 10^-5 M", "procedure,_shortened": "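Reactions were stopped with 0.2N HCl and neutralised, and cAMP was measured by SPA. Activity is expressed as percent of the maximal 10^−5 M isoproterenol response.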"}
{"smiles": "O=c1[nH]c2cccc(OC[C@@H](O)CNC3CCN(c4ccc(NS(=O)(=O)c5ccc(C(F)(F)F)cc5)cc4)CC3)c2[nH]1", "note": "[Example 328]", "IA(β3)": 0.89}
{"smiles": "O=c1[nH]c2cccc(OC[C@@H](O)CNC3CCN(c4ccc(NS(=O)(=O)c5ccc(OC(F)(F)F)cc5)cc4)CC3)c2[nH]1", "note": "[Example 329, N-{4-[4-({(2S)-2-Hydroxy-3-[(2-oxo-2,3-dihydro-1H-benzimidazol-4-yl)oxy]propyl}-amino)-1-piperidinyl]phenyl}-4-(trifluoromethoxy)benzenesulfonamide]", "IA(β3)": 0.9}
{"smiles": "COc1ccc(S(=O)(=O)Nc2ccc(N3CCC(NC[C@H](O)COc4cccc5[nH]c(=O)[nH]c45)CC3)cc2)cc1", "note": "[Example 330, N-{4-[4-({(2S)-2-Hydroxy-3-[(2-oxo-2,3-dihydro-1H-benzimidazol-4-yl)oxy]propyl}-amino)-1-piperidinyl]phenyl}-4-methoxybenzenesulfonamide]", "IA(β3)": 0.98}
{"smiles": "O=c1[nH]c2cccc(OC[C@@H](O)CNC3CCN(c4ccc(NS(=O)(=O)c5ccc(Cl)cc5)cc4)CC3)c2[nH]1", "note": "[Example 331, 4-Chloro-N-{4-[4-({(2S)-2-hydroxy-3-[(2-oxo-2,3-dihydro-1H-benzimidazol-4-yl)oxy]propyl}amino)-1-piperidinyl]phenyl}benzenesulfonamide]", "IA(β3)": 1}
{"smiles": "CCCCc1ccc(S(=O)(=O)Nc2ccc(N3CCC(NC[C@H](O)COc4cccc5[nH]c(=O)[nH]c45)CC3)cc2)cc1", "note": "[Example 332, 4-Butyl-N-{4-[4-({(2S)-2-hydroxy-3-[(2-oxo-2,3-dihydro-1H-benzimidazol-4-yl)oxy]propyl}amino)-1-piperidinyl]phenyl}benzenesulfonamide.]", "IA(β3)": 1.1}
{"smiles": "O=c1[nH]c2cccc(OC[C@@H](O)CNC3CCN(c4ccc(NS(=O)(=O)c5cc(Cl)cc(Cl)c5)cc4)CC3)c2[nH]1", "note": "[Example 333, 3,5-Dichloro-N-{4-[4-({(2S)-2-hydroxy-3-[(2-oxo-2,3-dihydro-1H-benzimidazol-4-yl)oxy]propyl}amino)-1-piperidinyl]phenyl}benzenesulfonamide]", "IA(β3)": 0.83}
{"smiles": "COc1ccc(OC)c(S(=O)(=O)Nc2ccc(N3CCC(NC[C@H](O)COc4cccc5[nH]c(=O)[nH]c45)CC3)cc2)c1", "note": "[Example 334, N-{4-[4-({(2S)-2-Hydroxy-3-[(2-oxo-2,3-dihydro-1H-benzimidazol-4-yl)oxy]propyl}-amino)-1-piperidinyl]phenyl}-2,5-dimethoxybenzenesulfonamide]", "IA(β3)": 0.91}
{"smiles": "COc1ccc(OC)c(S(=O)(=O)Nc2ccc(N3CCC(NC[C@H](O)c4ccc(O)c(NS(C)(=O)=O)c4)CC3)cc2)c1", "note": "[Example 335, N-(4-{4-[((2R)-2-Hydroxy-2-{4-hydroxy-3-[(methylsulfonyl)amino]phenyl}ethyl)amino]-1-piperidinyl}phenyl)-2,5-dimethoxybenzenesulfonamide]", "IA(β3)": 0.98}
{"smiles": "COc1ccc(Br)cc1S(=O)(=O)N(c1ccc(N2CCC(NC[C@H](O)COc3cccc4[nH]c(=O)[nH]c34)CC2)cc1)S(=O)(=O)c1cc(Br)ccc1OC", "note": "[Example 337]", "IA(β3)": 0.72}
{"smiles": "COc1ccc(Br)cc1S(=O)(=O)Nc1ccc(N2CCC(NC[C@H](O)COc3cccc4[nH]c(=O)[nH]c34)CC2)cc1", "note": "[Example 338, 5-Bromo-N-{4-[4-(f{(2S)-2-hydroxy-3-[(2-oxo-2,3-dihydro-1H-benzimidazol-4-yl)oxy]propyl}amino)-1-piperidinyl]phenyl}-2-methoxybenzenesulfonamide]", "IA(β3)": 1}
{"smiles": "CCCCS(=O)(=O)N(CC(=O)OCc1ccccc1)c1ccc(N2CCC(NC[C@H](O)c3ccc(O)c(NS(C)(=O)=O)c3)CC2)cc1", "note": "[Example 342]", "IA(β3)": 1}
{"smiles": "CCCCS(=O)(=O)N(CC(=O)OCC)c1ccc(N2CCC(NC[C@H](O)c3ccc(O)c(NS(C)(=O)=O)c3)CC2)cc1", "note": "[Example 345]", "IA(β3)": 1}
{"smiles": "O=S(=O)(Nc1ccc(N2CCC(NC[C@H](O)COc3ccccc3)CC2)cc1)c1ccc(Oc2ncc(C(F)(F)F)cc2Cl)cc1", "note": "[Example 346, 4-{[3-Chloro-5-(trifluoromethyl)-2-pyridinyl]oxy}-N-[4-(4-{[(2S)-2-hydroxy-3-phenoxypropyl]amino}-1-piperidinyl)phenyl]benzenesulfonamide]", "IA(β3)": 0.76}
{"smiles": "O=C(NCc1ccc(S(=O)(=O)Nc2ccc(N3CCC(NC[C@H](O)COc4cccc5[nH]c(=O)[nH]c45)CC3)cc2)s1)c1ccccc1", "note": "[Example 347, N-{[5-({4-[4-({(2S)-2-Hydroxy-3-[(2-oxo-2,3-dihydro-1H-benzimidazol-4-yl)oxy]propyl}amino)-1-piperidinyl]anilino}sulfonyl)-2-thienyl]methyl}benzamide]", "IA(β3)": 0.91}
{"smiles": "O=C(NCc1ccc(S(=O)(=O)Nc2ccc(N3CCC(NC[C@H](O)COc4ccccc4)CC3)cc2)s1)c1ccccc1", "note": "[Example 348]", "IA(β3)": 0.63}
{"smiles": "O=C(NCc1ccc(S(=O)(=O)Nc2ccc(N3CCC(NCC(O)c4cccc(O)c4)CC3)cc2)s1)c1ccccc1", "note": "(stereo not shown) [Example 349, N-[(5-{[4-(4-{[2-Hydroxy-2-(3-hydroxyphenyl)ethyl]amino}-1-piperidinyl)-anilino]sulfonyl}-2-thienyl)methyl]benzamide]", "IA(β3)": 1.26}
{"smiles": "O=c1[nH]c2cccc(OC[C@@H](O)CNC3CCN(c4ccc(NS(=O)(=O)c5ccc(Oc6ncc(C(F)(F)F)cc6Cl)cc5)cc4)CC3)c2[nH]1", "note": "[Example 350, 4-{[3-Chloro-5-(trifluoromethyl)-2-pyridinyl]oxy}-N-{4-[4-({(2S)-2-hydroxy-3-[(2-oxo-2,3-dihydro-1H-benzimidazol-4-yl)oxy]propyl}amino)-1-piperidinyl]phenyl}-benzenesulfonamide]", "IA(β3)": 1.26}
{"smiles": "O=S(=O)(Nc1ccc(N2CCC(NCC(O)c3cccc(O)c3)CC2)cc1)c1ccc(Oc2ncc(C(F)(F)F)cc2Cl)cc1", "note": "(stereo not shown) [Example 351]", "IA(β3)": 0.76}
{"smiles": "O=c1[nH]c2cccc(OC[C@@H](O)CNC3CCN(c4ccc(NS(=O)(=O)c5cc(Cl)c(Oc6ccc([N+](=O)[O-])cc6Cl)c(Cl)c5)cc4)CC3)c2[nH]1", "note": "[Example 352, 3,5-Dichloro-4-(2-chloro-4-nitrophenoxy)-N-{4-[4-({(2S)-2-hydroxy-3-[(2-oxo-2,3-dihydro-1H-benzimidazol-4-yl)oxy]propyl}amino)-1-piperidinyl]phenyl}-benzenesulfonamide]", "IA(β3)": 1.02}
{"smiles": "O=[N+]([O-])c1ccc(Oc2c(Cl)cc(S(=O)(=O)Nc3ccc(N4CCC(NC[C@H](O)COc5ccccc5)CC4)cc3)cc2Cl)c(Cl)c1", "note": "[Example 353, 3,5-Dichloro-4-(2-chloro-4-nitrophenoxy)-N-[4-(4-{[(2S)-2-hydroxy-3-phenoxypropyl]amino}-1-piperidinyl)phenyl]benzenesulfonamide]", "IA(β3)": 0.97}
{"smiles": "O=[N+]([O-])c1ccc(Oc2c(Cl)cc(S(=O)(=O)Nc3ccc(N4CCC(NCC(O)c5cccc(O)c5)CC4)cc3)cc2Cl)c(Cl)c1", "note": "(stereo not shown) [Example 354, 3,5-Dichloro-4-(2-chloro-4-nitrophenoxy)-N-[4-(4-{[2-hydroxy-2-(3-hydroxyphenyl)-ethyl]amino}-1-piperidinyl)phenyl]benzenesulfonamide]", "IA(β3)": 0.73}
{"smiles": "O=S(=O)(Nc1ccc(N2CCC(NC[C@@H](O)c3cccc(O)c3)CC2)cc1)c1cccs1", "note": "[Example 357, N-[4-(4-{[(2S)-2-Hydroxy-2-(3-hydroxyphenyl)ethyl]amino}-1-piperidinyl)phenyl]-2-thiophenesulfonamide]", "IA(β3)": 0.87}
{"smiles": "CCCCOc1ccc(S(=O)(=O)Nc2ccc(N3CCC(NC[C@H](O)COc4cccc5[nH]c(=O)[nH]c45)CC3)cc2)cc1", "note": "[Example 358, 4-Butoxy-N-{4-[4-({(2S)-2-hydroxy-3-[(2-oxo-2,3-dihydro-1H-benzimidazol-4-yl)oxy]propyl}amino)-1-piperidinyl]phenyl}benzenesulfonamide]", "IA(β3)": 1.1}
{"smiles": "COc1ccc(S(=O)(=O)Nc2ccc(N3CCC(NC[C@H](O)COc4cccc5[nH]c(=O)[nH]c45)CC3)cc2)cc1OC", "note": "[Example 359, N-{4-[4-({(2S)-2-Hydroxy-3-[(2-oxo-2,3-dihydro-1H-benzimidazol-4-yl)oxy]-propyl}amino)-1-piperidinyl]phenyl}-3,4-dimethoxybenzenesulfonamide]", "IA(β3)": 0.91}
{"smiles": "COc1ccc(S(=O)(=O)Nc2ccc(N3CCC(NC[C@H](O)COc4ccccc4)CC3)cc2)cc1OC", "note": "[Example 360, N-[4-(4-{[(2S)-2-Hydroxy-3-phenoxypropyl]amino}-1-piperidinyl)phenyl]-3,4-dimethoxybenzenesulfonamide]", "IA(β3)": 0.54}
{"smiles": "COc1ccc(S(=O)(=O)Nc2ccc(N3CCC(NCC(O)c4cccc(O)c4)CC3)cc2)cc1OC", "note": "(stereo not shown) [Example 361, N-[4-(4-{[2-Hydroxy-2-(3-hydroxyphenyl)ethyl]amino}-1-piperidinyl)phenyl]-3,4-dimethoxybenzenesulfonamide]", "IA(β3)": 0.55}
{"smiles": "O=c1[nH]c2cccc(OC[C@@H](O)CNC3CCN(c4ccc(NS(=O)(=O)c5cccs5)cc4)CC3)c2[nH]1", "note": "[Example 362, N-{4-[4-({(2S)-2-Hydroxy-3-[(2-oxo-2,3-dihydro-1H-benzimidazol-4-yl)oxy]propyl}-amino)-1-piperidinyl]phenyl}-2-thiophenesulfonamide]", "IA(β3)": 0.9}
{"smiles": "CCOC(=O)CC(=O)Nc1ccc(N2CCC(NC[C@H](O)c3ccc(O)c(NS(C)(=O)=O)c3)CC2)cc1", "note": "[Example 371, Ethyl 3-(4-{4-[((2R)-2-hydroxy-2-{4-hydroxy-3-[(methylsulfonyl)amino]phenyl}-ethyl)-amino]-1-piperidinyl}anilino)-3-oxopropanoate]", "IA(β3)": 0.91}
